Source: patent publication US11007206B2, “Cyclic boronic acid ester derivatives and therapeutic uses thereof” (Melinta Subsidiary Corp., priority 2012, dated 2021)
Values joined by “and” are separate entries in the source; they are usually repeats but may differ in a detail not shown here. Equal values may be shown once. Read-outs that look alike come from different tables or passages of the source.

Assays:
[1] = tested on: KPC-producing strains; assay: Time-kill assays of Biapenem with Compound I (Example 4); assay type: cell-based, Enterobacteriaceae; conditions: KPC-producing strains (Biapenem MICs of 16-32 ug/ml)
Method: The evaluation of Compound I in combination with the carbapenem antibiotic Biapenem against multi-drug resistant strains of Enterobacteriaceae, including those producing serine carbapenemases were also conducted. Antibiotic potentiation activity of Compound I was studied in checkerboard MIC experiments and time-kill assays. The MICs of Biapenem were determined alone or in combination with Compound I added at fixed concentrations between 0.5 and 16 ug/ml) against characterized and engineered isolates producing various beta-lactamases, as well as in geographically diverse panels of multi-drug resistant strains of Enterobacteriaceae (including strains that express the most relevant beta-lactamases).

[2] = Plasma pharmacokinetics of Compound I after single intraperitoneal dose in Swiss-Webster mice (Example 1); assay type: in vivo; conditions: for concentration at 4 h: samples m.p. 10.x = 10th time point (4.0 h); for concentration at 0.16 h: samples m.p. 2.x = 2nd time point (0.16 h)
Method: Example 1 provides a summary of three pharmacokinetic studies Compound I conducted in Swiss-webster mice. The pharmacokinetics of 5 mg/kg, 15 mg/kg and 50 mg/kg of Compound I via the intraperitoneal route were discussed.
Compound I was prepared using the method described in the U.S. Publication 2012/0040932 A1. 100 mg of Compound I was dissolved in 30% 1N NaOH to ˜pH 5.0 as a stock solution. Compound I was further diluted in 0.9% saline to achieve target concentrations.
The specifications for animals used on this study were as follows: • Species: Mouse • Strain: CFW (Swiss) • Gender: Female • Source: Harlan Laboratories (Livermore, Calif.) • Number of Animals: 33 for each dose • Body Weight Range: 18-22 g at the start of the study
After acclimation, mice were administered a single intraperitoneal dose of Compound I at 5, 15, and 50 mg/kg. Groups of three mice were sacrificed at 0.08, 0.16, 0.25, 0.33, 0.5, 0.75, 1.0, 2.0, 3.0, and 4.0 h after dosing. Blood samples (one sample per animal) were collected by cardiac puncture in a heparin containing tube. Blood samples were centrifuged within 5 min of collection at 12000 g for 5 min to obtain plasma. The plasma samples were stored on −80° C. until analyzed.
Compound I standard curves were prepared in plasma from 0.1 to 100 μg/mL. 50 μl aliquots of sample were placed in 1.5 mL microcentrifuge tubes. 20 μl of Compound II (10 μg/mL) was added as internal standard to each sample or standard. 20 μl of 30% trichloroacetic acid was then added to each sample or standard. The samples were mixed using a vortex mixer centrifuged for 10 min at 15,000 RPM using a tabletop centrifuge. The supernatant (approx. […]) was removed and added to 100 μl of water in a 96-well plate. The samples were mixed again using a vortex mixer. 10 μl of each sample was injected onto an HPLC-MS for quantification.
The HPLC-MS conditions for plasma analysis are as follows: • Column: Phenomenex Fusion-RP or equivalent reversed-phase column, 5 um, 50×2 mm. • Flow rate: 0.6 mL/min. • Mobile phase A: 0.1% formic acid in water. • Mobile phase B: 0.1% formic acid in acetonitrile. • Gradient: 5-60% B in 1.5 min. • Mass spectrometer: Negative ion mode with electrospray ionization. • MS/MS: Compound I-Q1-m/e=296, Q3-m/e=234. • Compound II-Q1-m/e=331, Q3-m/e=201.
Plasma concentrations were fit using a one compartment IV infusion model (WinNonlinVersion 5.3, Pharsight Corp, and Mountain View, Calif.).

[3] = Swiss-Webster mice, plasma, 5 mg/kg intraperitoneal
[4] = Swiss-Webster mice, plasma, 15 mg/kg intraperitoneal
[5] = Swiss-Webster mice, plasma, 50 mg/kg intraperitoneal
[6] = female, CFW (Swiss-Webster), mouse, ip, Swiss-Webster mice, plasma, 5 mg/kg intraperitoneal
[7] = female, CFW (Swiss-Webster), mouse, ip, Swiss-Webster mice, plasma, 15 mg/kg intraperitoneal
[8] = female, CFW (Swiss-Webster), mouse, ip, Swiss-Webster mice, plasma, 50 mg/kg intraperitoneal
[9] = female, CFW (Swiss-Webster), mouse, plasma, ip, 15 mg/kg, mouse plasma, 15 mg/kg intraperitoneal, individual animals, read-out: Calc. Conc. (plasma concentration)

With `O=C(O)C[C@@H]1CC[C@H](NC(=O)Cc2cccs2)B(O)O1` [Compound I] the “Time-kill: effect of the addition of Compound I to Biapenem” value [1] was “significant bactericidal synergism”, the Linearity of pharmacokinetics ([2]; Swiss-Webster mice, dose range of 5 to 50 mg/kg intraperitoneal) was “linear PK” and the AUC [2, 3] was 3100 ng·h/mL. It also gave a Cl [2, 3] of 26.8 mL/min/kg, an AUC [2, 4] of 8300 ng·h/mL and a Cl [2, 4] of 30 mL/min/kg. The AUC [2, 5] was 31400 ng·h/mL, the Cl [2, 5] was 26.7 mL/min/kg and the Cmax [2, 6] was 8260 ng/mL. The half-life [2, 6] was 9.6 min, the Cmax [2, 7] was 19500 ng/mL and the half-life [2, 7] was 12 min. For the same compound, the Cmax [2, 8] was 67100 ng/mL, the half-life [2, 8] was 15 min and the concentration at 0.08 h ([2]; female, CFW (Swiss-Webster), mouse, plasma, ip, 5 mg/kg, mouse plasma, 5 mg/kg intraperitoneal, samples m.p. 1.x = 1st time point (0.08 h), individual animals, read-out: Calc. Conc. (plasma concentration)) was 5580 ng/mL. It also gave a concentration at 0.5 h ([2]; female, CFW (Swiss-Webster), mouse, plasma, ip, 5 mg/kg, mouse plasma, 5 mg/kg intraperitoneal, samples m.p. 5.x = 5th time point (0.5 h), individual animals, read-out: Calc. Conc. (plasma concentration)) of 1550 ng/mL, a concentration at 4 h ([2]; female, CFW (Swiss-Webster), mouse, plasma, ip, 5 mg/kg, mouse plasma, 5 mg/kg intraperitoneal, individual animals, read-out: Calc. Conc. (plasma concentration)) of 3.71 ng/mL and a concentration at 0.08 h ([2]; female, CFW (Swiss-Webster), mouse, plasma, ip, 15 mg/kg, mouse plasma, 15 mg/kg intraperitoneal, samples m.p. 1.x = 1st time point (0.08 h), individual animals, read-out: Calc. Conc. (plasma concentration)) of 16700 ng/mL. It also gave a concentration at 0.16 h [2, 9] of 15500 ng/mL, a concentration at 2 h ([2]; female, CFW (Swiss-Webster), mouse, plasma, ip, 15 mg/kg, mouse plasma, 15 mg/kg intraperitoneal, samples m.p. 8.x = 8th time point (2.0 h), individual animals, read-out: Calc. Conc. (plasma concentration)) of 126 ng/mL and a concentration at 4 h [2, 9] of less than 0 ng/mL. For the same compound, the concentration at 0.08 h ([2]; female, CFW (Swiss-Webster), mouse, plasma, ip, 50 mg/kg, mouse plasma, 50 mg/kg intraperitoneal, samples m.p. 1.x = 1st time point (0.08 h), individual animals, read-out: Calc. Conc. (plasma concentration)) was 34800 ng/mL, the concentration at 0.16 h ([2]; female, CFW (Swiss-Webster), mouse, plasma, ip, 50 mg/kg, mouse plasma, 50 mg/kg intraperitoneal, 5x dil., individual animals, read-out: Calc. Conc. (plasma concentration)) was 58900 ng/mL and the concentration at 0.25 h ([2]; female, CFW (Swiss-Webster), mouse, plasma, ip, 50 mg/kg, mouse plasma, 50 mg/kg intraperitoneal, samples m.p. 3.x = 3rd time point (0.25 h), 5x dil., individual animals, read-out: Calc. Conc. (plasma concentration)) was 64200 ng/mL. For the same compound, the concentration at 0.75 h ([2]; female, CFW (Swiss-Webster), mouse, plasma, ip, 50 mg/kg, mouse plasma, 50 mg/kg intraperitoneal, samples m.p. 6.x = 6th time point (0.75 h), individual animals, read-out: Calc. Conc. (plasma concentration)) was 19100 ng/mL, the concentration at 3 h ([2]; female, CFW (Swiss-Webster), mouse, plasma, ip, 50 mg/kg, mouse plasma, 50 mg/kg intraperitoneal, samples m.p. 9.x = 9th time point (3.0 h), individual animals, read-out: Calc. Conc. (plasma concentration)) was 181 ng/mL and the “Calc. Conc. (plasma concentration)” value ([2]; mouse plasma, 5 mg/kg intraperitoneal, samples m.p. 1.x = 1st time point (0.08 h), individual animals, 5 mg/kg) was 5.77 µg/mL and 4.84 µg/mL.
